How the values were obtained:
4T1-luc2 tumors = test: Spontaneous lung metastasis in 4T1-luc2 breast tumor model; type: in vivo, mice; details: ER-886046 150 mg/kg po daily days 9-27 + single radiation 9 Gy; day 27
Description: FIG. 6A to FIG. 6B. Anti-pulmonary metastasis activity of ER-886046/radiation in breast 4T1 tumor model. 4T1-luc2 cells were subcutaneously (sc) inoculated into the Ba1B/c mice. When the average size of tumors reached 100 mm^3, the tumors were radiated with a dose of 9 Gy once with or without daily oral administration of ER-886046 at dose of 150 mg/kg. Panel shown in FIG. 6A) At the end of study on day 27, lung metastasis of the animals was analyzed and quantified by luciferase expression. Panel shown in FIG. 6B) Representative IVIS images of each group are shown. Student t-test was used for statistic analysis.
In case of tumor rechallenge of tumor-free mice after treatments, CT26 cells and 4T1 cells were individually sc injected into the different flanks of the same mouse, and the growth of each tumor was measured and graphed as described above. […] At the end of study on day 27, the mice in all treatment groups were intranasally administered luciferin and the lungs were resected and analysed for luciferase expression using IVIS instrument. Quantification of the luciferase activity in the lungs was achieved by software Living Image.
Anti-spontaneous metastatic effect of ER-886046 and radiation combination therapy. […] At day 27, the mice in all treatment groups were intranasally administered luciferin and the lungs were resected and analyzed for luciferase expression.

PAN02 pancreatic tumors = test: PAN02 pancreatic tumor model, ER-886046 with gemcitabine and radiation; type: in vivo, mice
Description: FIG. 10. […] Antitumor activity of gemcitabine plus local radiation (RT) administered to PAN02 pancreatic tumors in C57BL/6 mice with or without ER-886046. Gemcitabine and RT dosing: a single 40 mg/kg dose of gemcitabine and a single 6 Gy dose of RT, was administered on day 27 post tumor cell injection. ER-8806046 was administered daily in an amount of 150 mg/kg from day 27 post tumor cell injection until the end of the study.
FIG. 11A to FIG. 11B. Additional experiments with combination therapy of ER-886046 and anti-metabolite chemotherapy with radiation compared to anti-metabolite chemotherapy with radiation alone. Panel shown in FIG. 11A) Gemcitabine and RT dosing: a single 40 mg/kg dose of gemcitabine and a single 6 Gy dose of RT, was administered on day 19 post tumor cell injection. ER-8806046 was administered daily in an amount of 150 mg/kg from day 19 post tumor cell injection until the end of the study. Panel shown in FIG. 11B) Gemcitabine and RT dosing: a single 40 mg/kg dose of gemcitabine and a single 6 Gy dose of RT, was administered on day 12 post tumor cell injection. ER-8806046 was administered daily in an amount of 150 mg/kg from day 12 post tumor cell injection until the end of the study. Average tumor sizes of mouse pancreatic PAN02 tumor-bearing mice that received vehicles, ER-886046, gemcitabine (gem) plus radiation (RT), ER-886046 plus RT, or ER-886046 plus gemcitabine and RT at indicated dosages and schedules. A and B represent each independent study. N=8-10 per group. NS, not significant; *, p<0.05; **, p<0.01; ***, p<0.001; and ****, p<0.0001, two-way ANOVA test.
Animal studies; In vitro cultured cancer cells were harvested and suspended in 100 μl of cold HBSS buffer at cell concentrations of 1.0×10^6 cells/ml (CT-26 cells) or of 1.0×10^7 cells/ml (PAN02 cells) and subcutaneously (sc) injected into the mice using a 26 g syringe on day 0. At the dates as indicated in the figures, the mice were randomized based on the tumor size followed by treatments with local radiation alone, gemcitabine alone (intravenous administration), ER-886046 alone (oral administration), or combinations of these treatments. […] The tumor sizes were measured twice a week by a digital caliber (Mitutoyo Corp), and the volume was calculated using the formula (1×w^2)/2=mm^3, where 1 and w refer to the larger and smaller perpendicular dimensions collected at each measurement. Graphs of group tumor sizes (mean±SEM) versus time were plotted using software GraphPad Prism 6 (Lake Forest, Calif.). Two way ANOVA was used for statistical calculation among the groups. N=8-10 in each treatment group.

## C[C@H](NC(=O)c1c(C(F)F)nn(C)c1Oc1cccc(C(F)(F)F)c1)c1ccc(C(=O)O)cc1 [ER-886046]
4T1-luc2 tumors
  luciferase expression in lungs (lung metastasis): significant reduction
PAN02 pancreatic tumors; ER-886046 150 mg/kg daily + RT 6 Gy, first study (FIG. 10)
  anti-tumor activity, ER-886046 plus RT vs triple combination: no significant difference in the anti-tumor activity
PAN02 pancreatic tumors; ER-886046 150 mg/kg daily from day 27 + gemcitabine 40 mg/kg + RT 6 Gy day 27, first study (FIG. 10)
  anti-tumor activity, triple combination: best anti-tumor activity among the treatment groups
PAN02 pancreatic tumors; ER-886046 150 mg/kg daily from day 27, first study (FIG. 10)
  anti-tumor activity, ER-886046 alone: more efficacious than RT plus gemcitabine
PAN02 pancreatic tumors; triple combination ER-886046 + gemcitabine + RT, day 36 after tumor cell inoculation (FIG. 11B)
  tumor-bearing animals cured: five of eight
